Several values for one entry are separate records, joined by “and”; a condition that tells them apart may be missing. Equal entries are not always repeated. Positions of bridges follow the written chain, without caps; N, C: chain ends. No end group written: not given here.
Columns and labels:
[1] = molecular target: T1, SARS-CoV-2 Spike A (wild-type) (Severe acute respiratory syndrome coronavirus 2, UniProt P0DTC2); test: MSD ACE2 competition assay (inhibition of Spike binding with ACE2, ECL), A (wild-type); details: IC50 Wild Type, Wild Type Spike
T1 construct: purchased Meso Scale Diagnostics, LLC V-PLEX SARS-CoV-2 Panel 13 (ACE2) Kit / Panel 23 (ACE2) Kit

[2] = molecular target: SARS-CoV-2 Spike protein (Severe acute respiratory syndrome coronavirus 2, UniProt P0DTC2); test: Ternary binding of SARS-CoV-2 Spike protein (293T cells expressing Spike-GFP, IgG-AF647, flow cytometry); format: cell-based; details: 293T cells expressing Spike-GFP; IgG-AF647 10 μg/ml; repeat values/batches listed separately; read-out: SARS-CoV-2 Ternary binding EC50
Experimental: 293T cells stably expressing SARS-CoV-2 Spike-GFP protein on their surface were incubated with a concentration range of compound for 30 minutes at 37° C.-5% CO2 in Roswell Park Memorial Institute Medium (RPMI)-5% low IgG serum with 10 μg/ml IgG-Alexa Fluor® 647 (AF647). The cells were washed twice using the same medium, resuspended in phosphate-buffered saline (PBS)-1% bovine serum albumin (BSA), and acquired on Attune™ NxT Flow Cytometer. In some embodiments, mean fluorescence intensity of AF647 as well as […] AF647 positive in GFP positive gate are reported as readouts in this assay.

ILQKIYEIMRLLDELGHAEASMRVSDLIYEFMKKDCAWHLGELVWCT (disulfide 36-46) [Compound 119]
IC50 [1]: 46.6 nM and 66.7 nM | EC50 [2]: 2.4 nM and 2.9 nM

Ac-DCAWHLGELVWCTILQKIYEIMRLLDELGHAEASMRVSDLIYEFMKK (disulfide 2-12) [Compound 122]
IC50 [1]: 33.5 nM | EC50 [2]: > 10 nM

CC[C@H](C)[C@H](NC(=O)[C@H](Cc1c[nH]c2ccccc12)NC(=O)[C@H](CCC(=O)O)NC(=O)[C@H](CCCCN)NC(=O)[C@H](CC(=O)O)NC(C)=O)C(=O)N[C@@H](CC(C)C)C(=O)N[C@@H](CCC(N)=O)C(=O)N[C@@H](CCCCN)C(=O)N[C@H](C(=O)N[C@@H](Cc1ccc(O)cc1)C(=O)N[C@@H](CCC(=O)O)C(=O)N[C@H](C(=O)N[C@@H](CCSC)C(=O)N[C@@H](CCCNC(=N)N)C(=O)N[C@@H](CC(C)C)C(=O)N[C@@H](CC(C)C)C(=O)N[C@@H](CC(=O)O)C(=O)N[C@@H](CCC(=O)O)C(=O)N[C@@H](CC(C)C)C(=O)NCC(=O)NCCOCCOCCOCCOCCOCCOCCOCCOCCC(=O)NCCOCCOCCOCCOCCOCCOCCOCCOCCC(=O)N[C@@H](CC(=O)O)C(=O)N[C@H]1CSSC[C@@H](C(=O)N[C@H](C(N)=O)[C@@H](C)O)NC(=O)[C@H](Cc2c[nH]c3ccccc23)NC(=O)[C@H](C(C)C)NC(=O)[C@H](CC(C)C)NC(=O)[C@H](CCC(=O)O)NC(=O)CNC(=O)[C@H](CC(C)C)NC(=O)[C@H](Cc2c[nH]cn2)NC(=O)[C@H](Cc2c[nH]c3ccccc23)NC(=O)[C@H](C)NC1=O)[C@@H](C)CC)[C@@H](C)CC [Compound 151]
EC50 [2]: > 10 nM

CC[C@H](C)[C@H](NC(=O)[C@H](CC(C)C)NC(=O)[C@H](CC(=O)O)NC(=O)[C@H](CO)NC(=O)[C@@H](NC(=O)[C@H](CCCNC(=N)N)NC(=O)[C@H](CCSC)NC(=O)[C@H](CO)NC(=O)[C@H](C)NC(=O)[C@H](CCC(=O)O)NC(=O)[C@H](C)NC(=O)[C@H](Cc1c[nH]cn1)NC(=O)CNC(=O)[C@H](CC(C)C)NC(=O)[C@H](CCC(=O)O)NC(=O)[C@H](CC(=O)O)NC(=O)[C@H](CC(C)C)NC(=O)[C@H](CC(C)C)NC(=O)[C@H](CCCNC(=N)N)NC(=O)[C@H](CCSC)NC(=O)[C@@H](NC(=O)[C@H](CCC(=O)O)NC(=O)[C@H](Cc1ccc(O)cc1)NC(=O)[C@@H](NC(=O)[C@H](CCCCN)NC(=O)[C@H](CCC(N)=O)NC(=O)[C@H](CC(C)C)NC(=O)[C@@H](NC(=O)[C@H](Cc1c[nH]c2ccccc12)NC(=O)[C@H](CCC(=O)O)NC(=O)[C@H](CCCCN)NC(=O)[C@H](CC(=O)O)NC(=O)CCOCCOCCOCCOCCNC(=O)CCCC[C@@H]1SC[C@@H]2NC(=O)N[C@@H]21)[C@@H](C)CC)[C@@H](C)CC)[C@@H](C)CC)C(C)C)C(=O)N[C@@H](Cc1ccc(O)cc1)C(=O)N[C@@H](CCC(=O)O)C(=O)N[C@@H](Cc1ccccc1)C(=O)N[C@@H](CCSC)C(=O)N[C@@H](CCCCN)C(=O)N[C@@H](CCCCN)C(=O)NCC(=O)O [Compound 209]
EC50 [2]: 1.1 nM

CC[C@H](C)[C@H](NC(=O)[C@H](CC(C)C)NC(=O)[C@H](CC(=O)O)NC(=O)[C@H](CO)NC(=O)[C@@H](NC(=O)[C@H](CCCNC(=N)N)NC(=O)[C@H](CCSC)NC(=O)[C@H](CO)NC(=O)[C@H](C)NC(=O)[C@H](CCC(=O)O)NC(=O)[C@H](C)NC(=O)[C@H](Cc1c[nH]cn1)NC(=O)CNC(=O)[C@H](CC(C)C)NC(=O)[C@H](CCC(=O)O)NC(=O)[C@H](CC(=O)O)NC(=O)[C@H](CC(C)C)NC(=O)[C@H](CC(C)C)NC(=O)[C@H](CCCNC(=N)N)NC(=O)[C@H](CCSC)NC(=O)[C@@H](NC(=O)[C@H](CCC(=O)O)NC(=O)[C@H](Cc1ccc(O)cc1)NC(=O)[C@@H](NC(=O)[C@H](CCCCN)NC(=O)[C@H](CCC(N)=O)NC(=O)[C@H](CC(C)C)NC(=O)[C@@H](NC(=O)[C@H](Cc1c[nH]c2ccccc12)NC(=O)[C@H](CCC(=O)O)NC(=O)[C@H](CCCCN)NC(=O)[C@H](CC(=O)O)NC(C)=O)[C@@H](C)CC)[C@@H](C)CC)[C@@H](C)CC)C(C)C)C(=O)N[C@@H](Cc1ccc(O)cc1)C(=O)N[C@@H](CCC(=O)O)C(=O)N[C@@H](Cc1ccccc1)C(=O)N[C@@H](CCSC)C(=O)N[C@@H](CCCCN)C(=O)N[C@@H](CCCCN)C(=O)NCC(=O)NCCOCCOCCOCCOCCOCCOCCOCCOCCC(=O)NCCOCCOCCOCCOCCOCCOCCOCCOCCNC(=O)[C@@H]1CSCC(=O)N[C@@H](C)C(=O)N[C@@H](CO)C(=O)N[C@@H](Cc2ccc(O)cc2)C(=O)N[C@@H](Cc2c[nH]cn2)C(=O)N[C@@H](CC(C)C)C(=O)NCC(=O)N[C@@H](CCC(=O)O)C(=O)N[C@@H](CC(C)C)C(=O)N[C@@H](C(C)C)C(=O)N[C@@H](Cc2c[nH]c3ccccc23)C(=O)N2Cc3ccccc3C[C@H]2C(=O)NC(C)(C)C(=O)N1 [Compound 160]
EC50 [2]: 1.4 nM and 2.2 nM

CC[C@H](C)[C@H](NC(C)=O)C(=O)N[C@@H](Cc1ccc(O)cc1)C(=O)N[C@@H](CCC(=O)O)C(=O)N[C@H](C(=O)N[C@@H](CCSC)C(=O)N[C@@H](CCCNC(=N)N)C(=O)N[C@@H](CC(C)C)C(=O)N[C@@H](CC(C)C)C(=O)N[C@@H](CC(=O)O)C(=O)N[C@@H](CCC(=O)O)C(=O)N[C@@H](CC(C)C)C(=O)NCC(=O)N[C@@H](Cc1c[nH]cn1)C(=O)N[C@@H](C)C(=O)N[C@@H](CCC(=O)O)C(=O)N[C@@H](C)C(=O)N[C@@H](CO)C(=O)N[C@@H](CCSC)C(=O)N[C@@H](CCCNC(=N)N)C(=O)N[C@H](C(=O)N[C@@H](CO)C(=O)N[C@@H](CC(=O)O)C(=O)N[C@@H](CC(C)C)C(=O)N[C@H](C(=O)N[C@@H](Cc1ccc(O)cc1)C(=O)N[C@@H](CCC(=O)O)C(=O)N[C@@H](Cc1ccccc1)C(=O)N[C@@H](CCSC)C(=O)N[C@@H](CCCCN)C(=O)N[C@@H](CCCCN)C(=O)NCC(=O)NCCOCCOCCOCCOCCOCCOCCOCCOCCC(=O)NCCOCCOCCOCCOCCOCCOCCOCCOCCC(=O)N[C@@H](CC(=O)O)C(=O)N[C@H]1CSSC[C@@H](C(=O)N[C@H](C(N)=O)[C@@H](C)O)NC(=O)[C@H](Cc2c[nH]c3ccccc23)NC(=O)[C@H](C(C)C)NC(=O)[C@H](CC(C)C)NC(=O)[C@H](CCC(=O)O)NC(=O)CNC(=O)[C@H](CC(C)C)NC(=O)[C@H](Cc2c[nH]cn2)NC(=O)[C@H](Cc2c[nH]c3ccccc23)NC(=O)[C@H](C)NC1=O)[C@@H](C)CC)C(C)C)[C@@H](C)CC [Compound 156]
EC50 [2]: > 100 nM

CC[C@H](C)[C@H](NC(=O)[C@H](CC(C)C)NC(=O)[C@H](CC(=O)O)NC(=O)[C@H](CO)NC(=O)[C@@H](NC(=O)[C@H](CCCNC(=N)N)NC(=O)[C@H](CCSC)NC(=O)[C@H](CO)NC(=O)[C@H](C)NC(=O)[C@H](CCC(=O)O)NC(=O)[C@H](C)NC(=O)[C@H](Cc1c[nH]cn1)NC(=O)CNC(=O)[C@H](CC(C)C)NC(=O)[C@H](CCC(=O)O)NC(=O)[C@H](CC(=O)O)NC(=O)[C@H](CC(C)C)NC(=O)[C@H](CC(C)C)NC(=O)[C@H](CCCNC(=N)N)NC(=O)[C@H](CCSC)NC(=O)[C@@H](NC(=O)[C@H](CCC(=O)O)NC(=O)[C@H](Cc1ccc(O)cc1)NC(=O)[C@@H](NC(=O)[C@H](CCCCN)NC(=O)[C@H](CCC(N)=O)NC(=O)[C@H](CC(C)C)NC(=O)[C@@H](NC(=O)[C@H](Cc1c[nH]c2ccccc12)NC(=O)[C@H](CCC(=O)O)NC(=O)[C@H](CCCCN)NC(=O)[C@H](CC(=O)O)NC(C)=O)[C@@H](C)CC)[C@@H](C)CC)[C@@H](C)CC)C(C)C)C(=O)N[C@@H](Cc1ccc(O)cc1)C(=O)N[C@@H](CCC(=O)O)C(=O)N[C@@H](Cc1ccccc1)C(=O)N[C@@H](CCSC)C(=O)N[C@@H](CCCCN)C(=O)N[C@@H](CCCCN)C(=O)NCC(=O)NCCOCCNC(=O)[C@@H]1CSCC(=O)N[C@@H](C)C(=O)N[C@@H](CO)C(=O)N[C@@H](Cc2ccc(O)cc2)C(=O)N[C@@H](Cc2c[nH]cn2)C(=O)N[C@@H](CC(C)C)C(=O)NCC(=O)N[C@@H](CCC(=O)O)C(=O)N[C@@H](CC(C)C)C(=O)N[C@@H](C(C)C)C(=O)N[C@@H](Cc2c[nH]c3ccccc23)C(=O)N2Cc3ccccc3C[C@H]2C(=O)NC(C)(C)C(=O)N1 [Compound 159]
EC50 [2]: 3 nM and 2.8 nM

CC[C@H](C)[C@H](NC(=O)[C@H](Cc1c[nH]c2ccccc12)NC(=O)[C@H](CCC(=O)O)NC(=O)[C@H](CCCCN)NC(=O)[C@H](CC(=O)O)NC(C)=O)C(=O)N[C@@H](CC(C)C)C(=O)N[C@@H](CCC(N)=O)C(=O)N[C@@H](CCCCN)C(=O)N[C@H](C(=O)N[C@@H](Cc1ccc(O)cc1)C(=O)N[C@@H](CCC(=O)O)C(=O)N[C@H](C(=O)N[C@@H](CCSC)C(=O)N[C@@H](CCCNC(=N)N)C(=O)N[C@@H](CC(C)C)C(=O)N[C@@H](CC(C)C)C(=O)N[C@@H](CC(=O)O)C(=O)N[C@@H](CCC(=O)O)C(=O)N[C@@H](CC(C)C)C(=O)NCC(=O)N[C@@H](Cc1c[nH]cn1)C(=O)N[C@@H](C)C(=O)N[C@@H](CCC(=O)O)C(=O)N[C@@H](C)C(=O)N[C@@H](CO)C(=O)NCCOCCOCCOCCOCCOCCOCCOCCOCCC(=O)NCCOCCOCCOCCOCCOCCOCCOCCOCCC(=O)N[C@@H](CC(=O)O)C(=O)N[C@H]1CSSC[C@@H](C(=O)N[C@H](C(N)=O)[C@@H](C)O)NC(=O)[C@H](Cc2c[nH]c3ccccc23)NC(=O)[C@H](C(C)C)NC(=O)[C@H](CC(C)C)NC(=O)[C@H](CCC(=O)O)NC(=O)CNC(=O)[C@H](CC(C)C)NC(=O)[C@H](Cc2c[nH]cn2)NC(=O)[C@H](Cc2c[nH]c3ccccc23)NC(=O)[C@H](C)NC1=O)[C@@H](C)CC)[C@@H](C)CC [Compound 152]
EC50 [2]: > 100 nM
